39 molecules from patent US9963462B2 (priority 2015, dated 2018) can be followed below.

In assay [1] the target is SNAP-hSPR (sepiapterin reductase, SPR) (Homo sapiens, UniProt P35270). Put plainly: biochemical. Format: binding. The following applies: terbium labelled SNAP-hSPR / SSZ labelled SNAP-EGFP; read-out: hTR-FRET IC50.
For assay [2], the system named is BH4 levels in SK-N-BE (2) cells. Put plainly: SKN-N-BE (2) cellular assay, BH4 levels by LC-MS. The following applies: Homo sapiens, SKNBE2, read-out: SK-N-BE(2) IC50, SK-N-BE (2) cells, BH4 levels by LC-MS. Format: cell-based.

The structures appear in SMILES notation.

Sequence of SNAP-hSPR (sepiapterin reductase, SPR) (P35270 whole entry): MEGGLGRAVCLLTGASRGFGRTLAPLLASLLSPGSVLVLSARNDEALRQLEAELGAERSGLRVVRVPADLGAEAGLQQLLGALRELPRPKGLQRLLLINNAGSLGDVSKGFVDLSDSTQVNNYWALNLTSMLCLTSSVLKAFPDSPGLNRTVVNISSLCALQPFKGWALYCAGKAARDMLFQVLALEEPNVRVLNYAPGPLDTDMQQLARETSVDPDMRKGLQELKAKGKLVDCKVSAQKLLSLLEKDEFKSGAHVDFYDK

On to `Cc1c(C(=O)N2CCC(c3ccccc3)CC2)cnn1-c1nc2c(c(=O)[nH]1)CCC2` [Q-0428], for which the results for the IC50 in assay [1] and in assay [2] were 3 nM and 19 nM, respectively.
In the same order, the values of `Cc1cc(=O)[nH]c(-n2ncc(C(=O)NCCC(F)(F)F)c2C)n1` [Q-0367] are 70 nM and 11000 nM.
As for `COC(=O)c1cnn(-c2nc(C)cc(=O)[nH]2)c1C` [Q-0310], the results for the IC50 in assay [1] and in assay [2] were 60 nM and 12000 nM, respectively.
Turning to `CCCN(CC)C(=O)c1cnn(-c2nc(C)cc(=O)[nH]2)c1C` [Q-0347], the values for the IC50 in assay [1] and in assay [2] were 10 nM and 7500 nM, respectively.
For `Cc1c(C(=O)N2CCN(C)CC2)cnn1-c1nc2c(c(=O)[nH]1)CCC2` [Q-0722], the IC50 in assay [1] stood at 20 nM; in assay [2], 3300 nM.
For `Cc1c(C(=O)N2CCN(C)CC2)cnn1-c1nn2cccc2c(=O)[nH]1` [Q-0756], in that order: 4 nM and 800 nM.
On to `O=C(c1cnn(-c2nc3sccc3c(=O)[nH]2)c1)N1CCC(CC(F)(F)F)CC1` [Q-0752], for which the IC50 in assay [1] stood at 4 nM; in assay [2] it was 500 nM.
For `Cc1c(C(=O)N2CCN3CCC[C@H]3C2)cnn1-c1nn2cccc2c(=O)[nH]1` [Q-0856], in that order: 4 nM and 1100 nM.
For `O=C(c1cnn(-c2nn3cccc3c(=O)[nH]2)c1)N1CCC(C(O)(C(F)(F)F)C(F)(F)F)CC1` [Q-0719], in that order: 2 nM and 200 nM.
In the case of `Cc1c(C(=O)N2CC(c3ccc(F)c(F)c3)C2)cnn1-c1nn2cccc2c(=O)[nH]1` [Q-0771], the IC50 was 1 nM in assay [1] and 200 nM in assay [2].
In the same order, the values of `Cc1c(C(=O)N2C3CCC2CC(c2ccccc2)C3)cnn1-c1nc2c(c(=O)[nH]1)CCC2` (stereo not drawn) [Q-0513] are 10 nM and 47 nM.
In the same order, the values of `Cc1c(C(=O)N2C3CCC2CN(C(=O)OC(C)(C)C)C3)cnn1-c1nn2cccc2c(=O)[nH]1` [Q-0739] are 2 nM and 300 nM.
In the same order, the values of `Cc1c(C(=O)N2CCC(c3cn(C)c4ccccc34)CC2)cnn1-c1nc2c(c(=O)[nH]1)CCC2` [Q-0592] are 20 nM and 76 nM.
As to `Cc1c(C(=O)N2CCC(C(F)(F)F)C2)cnn1-c1nc2c(c(=O)[nH]1)CCC2` (stereo not drawn) [Q-0431], the figures for the IC50 in assay [1] and in assay [2] were 3 nM and 500 nM, respectively.
`O=C(c1cnn(-c2nc3ccsc3c(=O)[nH]2)c1)N1CCC(c2c[nH]c3ccccc23)CC1` [Q-0527]: the IC50 in assay [1] was 30 nM; in assay [2], 45 nM.
On to `Cc1c(C(=O)N2CCC(NC(=O)OC(C)(C)C)(C(F)(F)F)C2)cnn1-c1nn2cccc2c(=O)[nH]1` (stereo not drawn) [Q-0852], for which the IC50 in assay [1] turned out to be 2 nM; in assay [2], 800 nM.
For `Cc1c(C(=O)O)cnn1-c1nc2c(c(=O)[nH]1)CCC2` [Q-0481, 5-methyl-1-{4-oxo-3H,4H,5H,6H,7H-cyclopenta[d]pyrimidin-2-yl}-1H-pyrazole-4-carboxylic acid], in that order: 30 nM and 95000 nM.
For `Cc1c(C(=O)N2CCCC(Oc3ccccc3)C2)cnn1-c1nc2c(c(=O)[nH]1)CCC2` (stereo not drawn) [Q-0468], the results for the IC50 in assay [1] and in assay [2] were 7 nM and 200 nM, respectively.
With `Cc1nn(-c2nc3ccsc3c(=O)[nH]2)c(C)c1C(=O)N1CCc2ccccc2C1` [Q-0458], the IC50 in assay [1] amounted to 6 nM; in assay [2], 400 nM.
With `Cc1c(C(=O)N2CCC3(CC2)CC3c2nnc(-c3ccccc3)o2)cnn1-c1nn2cccc2c(=O)[nH]1` (stereo not drawn) [Q-0696], the IC50 in assay [1] was found to be 4 nM; in assay [2], 400 nM.
For `Cc1cc(=O)[nH]c(-n2ncc(C(=O)N3Cc4ccccc4C3)c2C)n1` [Q-0302], in that order: 9 nM and 1200 nM.
In the same order, the values of `Cc1nc(-n2ncc(C(=O)N3c4ccccc4C[C@H]3C)c2C)[nH]c(=O)c1C` (single isomer, unassigned) [Q-0416] are 20 nM and 2800 nM.
In the same order, the values of `O=C(c1cnn(-c2nc3sccc3c(=O)[nH]2)c1)N1CCN2CCC[C@@H]2C1` [Q-0755] are 4 nM and 500 nM.
Take `Cc1c(C(=O)N2CCCC3(CC3)C2)cnn1-c1nn2cccc2c(=O)[nH]1` [Q-0819]: the figures for the IC50 in assay [1] and in assay [2] were 1 nM and 200 nM, respectively.
For `Cc1cc(=O)[nH]c(-n2nc(C(=O)N3CCc4ccccc4C3)cc2C)n1` [Q-0365, 6-methyl-2-[5-methyl-3-(1,2,3,4-tetrahydroisoquinoline-2-carbonyl)-1H-pyrazol-1-yl]-3,4-dihydropyrimidin-4-one], in that order: 50 nM and 12000 nM.
For `CCCN(C)C(=O)c1cnn(-c2nc(C)cc(=O)[nH]2)c1C` [Q-0346], in that order: 8 nM and 5300 nM.
For `Cc1c(C(=O)N2CCc3ccccc3C2)cnn1-c1nc2c(c(=O)[nH]1)CCC2` [Q-0396], in that order: 2 nM and 61 nM.
Regarding `Cc1c(C(=O)N2[C@H](C)CCC[C@@H]2C)cnn1-c1nc2ccsc2c(=O)[nH]1` [Q-0417], the IC50 was determined as 4 nM in assay [1] and 900 nM in assay [2].
For `Cc1c(C(=O)N2CCC(C(F)(F)F)CC2)cnn1-c1cc(C(F)(F)F)cc(=O)[nH]1` [Q-0466, 6-{5-methyl-4-[4-(trifluoromethyl)piperidine-1-carbonyl]-1H-pyrazol-1-yl}-4-(trifluoromethyl)-1,2-dihydropyridin-2-one], in that order: 1 nM and 59 nM.
In the same order, the values of `O=C(c1cnc(-c2nc3ccsc3c(=O)[nH]2)s1)N1CCC(C(F)(F)F)CC1` [Q-0530] are 30 nM and 1800 nM.
For `Cc1c(C(=O)N2CC[C@@H](N(C)C(=O)OC(C)(C)C)C2)cnn1-c1nc2ccsc2c(=O)[nH]1` [Q-0549], in that order: 4 nM and 400 nM.
As for `Cc1c(C(=O)N2CCC3(CCCN3Cc3ccccc3)C2)cnn1-c1nc2ccsc2c(=O)[nH]1` (stereo not drawn) [Q-0601], the half-inhibitory concentration (IC50) in assay [1] was 5 nM; in assay [2], 100 nM.
For `CN[C@@H]1CCN(C(=O)c2cnn(-c3nc4c(c(=O)[nH]3)CCC4)c2C)C1` [Q-0588], in that order: 70 nM and 4700 nM.
In the same order, the values of `Cc1c(C(=O)N2CC[C@@H]3CN(C(=O)OC(C)(C)C)[C@@H]3C2)cnn1-c1nn2cccc2c(=O)[nH]1` [Q-0788] are 10 nM and 3600 nM.
Take `Cc1c(C(=O)N2C[C@@H]3CN(C(=O)OC(C)(C)C)[C@@H]3C2)cnn1-c1nn2cccc2c(=O)[nH]1` [Q-0773]: the figures for the IC50 in assay [1] and in assay [2] were 6 nM and 1700 nM, respectively.
For `Cc1c(C(=O)N2CCC[C@@H](C(F)(F)F)C2)cnn1-c1nc2c(c(=O)[nH]1)CCC2` (single isomer, unassigned) [Q-0474], in that order: 7 nM and 600 nM.
Regarding `Cc1c(C(=O)N2CCC(C(F)(F)F)CC2)cnn1-c1nc2[nH]ncc2c(=O)[nH]1` [Q-0438], the IC50 in assay [1] is 100 nM; in assay [2] it was 35000 nM.
For `Cc1c(C(=O)N(CCC#N)C2CCCCC2)cnn1-c1nc2c(c(=O)[nH]1)CCC2` [Q-0487], in that order: 3 nM and 600 nM.
For `Cc1cc(=O)[nH]c(-n2ncc(C(=O)N3CCC(C)(C)C3)c2CC(C)C)n1` [Q-0371], in that order: 70 nM and 14000 nM.

A word on the IC50: it is the concentration that inhibits the measured activity by half.
